Read-outs that look alike come from different tables or passages of the source. Ends that are not written are not given here.
Experiments:
L. monocytogenes [1] = assay type: cell-based, Listeria monocytogenes
E. coli O157:H7 [2] = assay type: cell-based, Escherichia coli O157:H7
Salmonella spp. [3] = assay type: cell-based
[4] = test system: Aerobic, mesophilic bacteria; assay type: cell-based
L. monocytogenes [5] = assay type: cell-based, Listeria monocytogenes; remark: listed apart in the source
Salmonella spp. [6] = assay type: cell-based; remark: listed apart in the source
E. coli O157:H7 [7] = assay type: cell-based, Escherichia coli O157:H7; remark: listed apart in the source
[8] = test system: Aerobic mesophilic bacteria
[9] = test system: Aerobic mesophilic bacteria; remark: listed apart in the source

Molecule | Average population of L. monocytogenes inactivated (L. monocytogenes [1]) [log] | Average population of E. coli O157:H7 inactivated (E. coli O157:H7 [2]) [log] | Average population of Salmonella inactivated (Salmonella spp. [3]) [log] | Log reduction of aerobes on cantaloupe rind surface [4] | Population of aerobic mesophilic bacteria, fresh-cut [4] [C Log10 CFU/g] | Log reduction of L. monocytogenes on cantaloupe rind surface (L. monocytogenes [5]) | Log reduction of Salmonella spp on cantaloupe rind surface (Salmonella spp. [6]) | Log reduction of E. coli O157:H7 on cantaloupe rind surface (E. coli O157:H7 [7]) | Population of aerobic mesophilic bacteria, fresh-cut [8] [D Log10 CFU/g] | Population of aerobic mesophilic bacteria, fresh-cut [9] [D Log10 CFU/g]
OO [hydrogen peroxide] | 5.0 | 5.5 | 5.1 | (2.0) log | 1.9 ± 0.10 | (3.4) log | (3.0) log | (2.9) log | 0.5 ± 0.10 | 0.3 ± 0.02
nisin (ITSISLCTPGCKTGALMGCNMKTATCHCSIHVSK; not fully specified (some residues, bridges); cysteine pairing not given here; UniProt P13068 24-57, looked up) [Nisin (30 mg; (~10 μg/ml)] | – | – | – | (1.2) log | – | (3.6) log | – | – | – | –
O=C(O)CC(O)(CC(=O)O)C(=O)O [Citric Acid (10 mM), Citric acid] | – | – | – | (1.2) log | – | (2.0) log | (1.8) log | (1.5) log | – | –
Sodium Lactate [Sodium Lactate (2%)] | – | – | – | (1.1) log | – | (2.8) log | (1.5) log | (1.4) log | – | –
O=C(O)CN(CCN(CC(=O)O)CC(=O)O)CC(=O)O [EDTA (0.02 M), ethylenediaminetetraacetic acid] | – | – | – | (0.4) log | – | (0.2) log | (0.4) log | (0.3) log | – | –
C/C=C/C=C/C(=O)O [Sorbic acid (0.03%), Sorbic acid] | – | – | – | (1.1) log | – | (2.2) log | (2.0) log | (1.8) log | – | –
